The structures appear in SMILES notation. Structures can show the parent of a compound that is named as a salt.

The values that follow come from patent US7456292B2, “Hydroxamic acid-containing amino acid derivatives” (Bexel Pharmaceuticals, Inc., priority 2005, dated 2008).

The subject of assay [1] is TNF-α. The assay is described as follows: LPS induced TNF-α in THP-1 monocytic cells. It counts as cell-based. The note with it: Homo sapiens, LPS 1 μg/mL 24 hours. On the procedure: Human THP-1 monocyte cells were cultured and incubated with compounds at different concentrations. Cells were then challenged with lipopolysaccharides (LPS) at a concentration of (1 μg/mL) for 24 hours. Cell supernatants were then analyzed for the presence of TNF-α cytokines by antibody directed enzyme-linked immunoassay from R & D System, Minneapolis, USA.

Assay [2] relates to TNF-α. The assay is described as follows: LPS induced sepsis model in mice, serum TNF-α. The note with it: Mus musculus, SW mice, serum after 90 min. It counts as in vivo. On the procedure: (§1) SW mice were orally treated with vehicle, dexamethasone (5 mg/kg) and compounds at a dose of 50 mg/kg body weight one hour before LPS injection (10 μg/mouse, ip) and blood was collected after 90 min and measured serum TNF-α and IL-6 levels by ELISA.

The test system of assay [3] is Collagen Induced Arthritis Model. The assay is described as follows: Collagen induced arthritis model. It counts as in vivo. The note with it: male DBA/1 Lac mice, oral 50 mg/kg daily. How it is done: Arthritis induced in male DBA/1 Lac mice with bovine collagen (100 μg/mouse). Booster dose was given on Day 21 and started treatment when clinical score was about 2. […] Dexamethasone was kept as positive control. Severity of each paw score was defined from 0=no erythma to 4=severe arthritis for the swollen paws with a maximum possible score of 16 for 4 paws (4×4) in one animal.

Assay [4] concerns TNF-α. The assay is described as follows: LPS induced TNF-α in hPBMC. It counts as cell-based. To be noted: Homo sapiens, read-out: Inhibition (%) TNF-α. On the procedure: (§2) Human PBMC monocyte cells were cultured and incubated with compounds at different concentrations. Cells were then challenged with lipopolysaccharides (LPS) at a concentration of (1 μg/mL) for 24 hours. Cell supernatants were then analyzed for the presence of TNF-α, IL-6 and IL-1β cytokines by antibody directed enzyme-linked immunoassay. Dexamethasone was used as a positive control in the experiments.

In assay [5] the test system is carrageenan induced paw inflammation. The assay is described as follows: Carrageenan induced inflammation in rats. To be noted: Sprague-Dowley rats, 50 mg/kg oral, paw volume after 2 and 3 hours. It counts as in vivo. How it is done: Sprague-Dowley rats with average weight of 250 g (6-7 weeks of age) were randomized in three groups, and given 50 mg/kg oral dose of compound of example 6. Thirty minutes later carrageenan was administered in the sub-planter region of right hind paws. The control group received equal volume of water without any compound. Paw volume was measured after 2 and 3 hours. Dexamethasone at a concentration of 5 mg/kg was used as a positive control in this experiment.

The next assay concerns IL-12 (p40). The assay is described as follows: CD40 ligand-mediated synthesis of IL-12 (p40) in mouse peritoneal macrophages. It counts as cell-based. To be noted: mouse peritoneal macrophages stimulated with 2 μg/mL soluble CD40 ligand. How it is done: To further confirm the inhibition of IL-12 secretion mediated by CD40, induction of IL-12 (p40) was examined following activation of macrophages by soluble CD40 ligand, CD 154. Mouse peritoneal macrophages, were stimulated with 2 μg/mL of soluble […] (Immunex) in the presence of compound 22.

Assay [6] has as its system intestinal bowel disease (IBD) induced by dextran sodium sulphate (DSS). The assay is described as follows: DSS induced inflammatory bowel disease in mice. To be noted: male SW mice, 4% DSS, daily dose 50 mg/kg body weight in PEG400. It counts as in vivo. How it is done: DAI is comprised of factors such as body weight, stool quality and occult blood content. A 4% solution of DSS was provided as drinking water and DAI was monitored twice a week for the induction of disease. Following this the animals were treated with a daily dose 50 mg/kg body weight of compound 22 in PEG400 formulations and the activity index was monitored twice a week.

The subject of the next assay is gamma interferon. The assay is described as follows: Myelin basic protein (MBP) induced gamma interferon in lymph node cultures. It counts as cell-based. The note with it: MBP stimulated lymph node cells of SJL mice, 72 h, ELISA. On the procedure:
(§3) FIG. 6: Inhibition of myelin basic protein (MBP) induced […] mice were immunized with 400 μg of myelin basic protein (MBP) in CFA on day 0 and 7 and regional lymph nodes were harvested on day 14 and cultured with MBP in the presence or absence of compound 22 for 72 h. Lymphocyte proliferation was determined by thymidine incorporation assay. Cell culture supernatants from MBP stimulated and compound 22 treated cells were assayed for gamma interferon using ELISA.
On the technique in general: An ELISA detects its analyte on a solid surface through an enzyme-linked reagent.

A further assay relates to Lymphocyte proliferation. The assay is described as follows: MBP induced lymphocyte proliferation (thymidine incorporation). It counts as cell-based. The note with it: MBP stimulated lymph node cells of SJL mice, 72 h. How it is done:
as §3

The subject of assay [7] is IL-6. The assay is described as follows: LPS induced sepsis model in mice, serum IL-6. It counts as in vivo. To be noted: Mus musculus; SW mice, oral 5 mg/kg bw one hour before LPS, serum after 90 min. On the procedure:
as §1

For another assay, the system named is IL-1β. The assay is described as follows: LPS induced IL-1β in hPBMC. It counts as cell-based. To be noted: Homo sapiens, LPS 1 μg/mL 24 hours. How it is done: as §2
In assay [8] the test system is IL-6. The assay is described as follows: LPS induced IL-6 in hPBMC. It counts as cell-based. The note with it: Homo sapiens, LPS 1 μg/mL 24 hours. On the procedure: as §2
A further assay deals with IL-12. The assay is described as follows: IL-12 secretion following LPS stimulation of mouse spleenic macrophages. It counts as cell-based. The note with it: mouse splenic macrophages stimulated with LPS for 72 hrs. An excerpt:
Compound 6 of this class inhibited IL-12 production in mouse splenic macrophages stimulated with LPS for 72 hrs.

The subject of another assay is T cell proliferation. The assay is described as follows: Inhibition of T cell proliferation. It counts as cell-based, mice. On the procedure:
SJL mice were immunized with keyhole limpet hemocyanin (KLH) in complete Freund's adjuvant (CFA). 12 days later regional lymph nodes were isolated and a proliferative response to KLH in the presence or absence of drug was performed (in presence of 3H thymidine). The results are expressed at Stimulation index (CPM+antigen/CPM no antigen). Similarly, mitogen induced concanavalin A (CON-A), IL-4, IL-2 induced T cell proliferation was measured in presence of compounds are shown in Table VI.

Where [9] appears, read: hPBMC, 10 μM, LPS 1 μg/mL 24 hours, * average of two experiments.

In the case of `Cl.NC(Cc1ccc(Oc2ccc(C(=O)NO)cc2)cc1)C(=O)O` (stereo not shown) [Compound 9, 2-amino-3-[4-(4-hydroxycarbamoyl-phenoxy)-phenyl]-propionic acid hydrochloric acid salt], the inhibition – broadly, the share of the control response that was lost under treatment – at 10 µM in the assay with TNF-α [1] is 20%. At 50 mg/kg the inhibition in the assay on TNF-α [2] (oral 50 mg/kg body weight one hour before LPS) was 45%. The arthritic scores result in assay [3] is reported as “significantly improved the arthritic scores”.

Turning to `Cc1ccc(S(=O)(=O)NC(Cc2ccc(Oc3ccc(C(=O)NO)cc3)cc2)C(=O)N(C)C)cc1` (stereo not shown) [Compound 14, 4-{4-[2-Dimethylcarbamoyl-2-(toluene-4-sulfonylamino)-ethyl]-phenoxy}-N-hydroxy-benzamide], the inhibition at 10 µM with TNF-α [4] (setting [9]) was 22%.

In the case of `CC(C)OC(=O)C(N)Cc1ccc(Oc2ccc(C(=O)O)cc2)cc1` (stereo not shown) [Compound 15, 4-[4-(2-Amino-2-isopropoxycarbonylethyl)-phenoxy]-benzoicacid], the inhibition at 10 µM with TNF-α [4] (setting [9]) was found to be 40.1%.

`CC(C)OC(=O)C(N)Cc1ccc(Oc2ccc(C(=O)NO)cc2)cc1` (stereo not shown) [Compound 16, 2-Amino-3-[4-(4-hydroxycarbamoylphenoxy)-phenyl]-propionic acid isopropyl ester]: the inhibition at 10 µM in the assay with TNF-α [4] (setting [9]) stood at 69.2%. Moreover, the “inflammation induced by carrageenan (paw volume)” value in assay [5] was “substantially lower the inflammation induced by carrageenan”.

As to `CN(C)C(=O)[C@@H](N)Cc1ccc(Oc2ccc(C(=O)NO)cn2)cc1` [Compound 21, L-6-[4-(2-amino-2-dimethylcarbamoyl-ethyl)-phenoxy]-N-hydroxy-nicotinamide hydrochloride], the inhibition at 10 µM with TNF-α [4] (setting [9]) was 36.1%.

With `NC(Cc1ccc(Oc2ccc(C(=O)NO)cc2)cc1)C(=O)[O-].[Na+]` (stereo not shown) [Compound 22, 2-amino-3-[4-(4-hydroxycarbamoyl-phenoxy)-phenyl]-propionic acid sodium salt], the inhibition at 10 µM in the assay with TNF-α [4] (24 h) worked out at 40%. Besides, in the assay on IL-12 (p40), the “inhibition of IL-12 (p40)” value is “prominent inhibition of IL-12”. Moreover, in assay [3], the arthritic scores entry is listed as “significantly improved the arthritic scores”. The “disease activity index (DAI)” value in [6] was “lowering of disease activity index”. Moreover, the gamma interferon levels entry in the assay with gamma interferon is recorded as “decrease in gamma interferon levels”. For the same molecule, the “T cell proliferative response” value with Lymphocyte proliferation is given as “normal T cell proliferative response”.

On to `C[C@@H]1C[C@H]2[C@@H]3CCC4=CC(=O)C=C[C@]4(C)[C@@]3(F)[C@@H](O)C[C@]2(C)[C@@]1(O)C(=O)CO` [Dexamethasone, reference compound], for which the inhibition at 10 µM in the assay with TNF-α [1] was 70%; in the assay with TNF-α [4] (setting [9]), 42%; in the assay with IL-1β it was 26%; with IL-6 [8] it was 14%. Also, the inhibition at 5 mg/kg in the assay with TNF-α [2] (oral 5 mg/kg bw one hour before LPS) worked out at 70%; with IL-6 [7] it was 50%.

As for `CS(=O)(=O)c1ccc(C2=C(c3ccccc3)C(=O)OC2)cc1` [rofecoxib, reference compound], the IL-12 production entry in the assay with IL-12 is “no effect was observed”. In the assay with T cell proliferation, the “effect on T cells (proliferation)” value is recorded as “did not show any effect on T cells”.
